# Data taken from PMC11356571, “The Comparative Metabolism of a Novel Hepatocellular Carcinoma Therapeutic Agent, 2,3-Diamino-N-(4-(benzo[d]thiazol-2-yl)phenyl)propanamide, in Human and Animal Hepatocytes” (Metabolites, 2024).
# Key:
# Assay type in all cases: in vitro ADME
# [1] = Metabolic stability in human hepatocytes; conditions: cryopreserved hepatocytes
# Experimental: (§1) Cryopreserved hepatocytes were carefully thawed in a 37 °C water bath for approximately 1 min, and transferred to a tube containing pre-warmed thawing medium. The supernatants were removed and the pellets were resuspended in KHB at a final cell density of 1 × 10^6 cells/mL, based on hemocytometer counting using trypan blue exclusion. A ETN101 solution was prepared by dissolving ETN101 in water at 4 mM and diluted by KHB at the concentration of 4 μM of ETN101. Sixty microliters each of hepatocyte suspensions and 4 μM of ETN101 were added in a 96-well plate and incubated for 0, 5, 15, 30, and 45 min at 37 °C in a CO2 incubator. All incubations were conducted in triplicates. Reactions were terminated by the addition of 120 μL of ice-cold acetonitrile and followed by vortex mixing. After centrifugation at 13,000 rpm for 8 min at 4 °C, 5 μL of internal standard (IS, camptothecin in acetonitrile at 780 ng/mL) was added to 60 μL of supernatant. A 2 μL aliquot was injected into the LC-MS/MS system. The reliability of the analysis was confirmed by incorporating three different levels of quality control samples at the beginning and end of each analytical batch. The disappearance rate (k) of ETN101 was calculated by determined peak area ratio of ETN101 to IS over incubation period. Subsequently, half-life (t1/2), intrinsic clearance (Clint), and intrinsic hepatic clearance (Clint,hep) of ETN101 in human and animal hepatocytes were calculated using the following equation [34]: t1/2(min)=ln2/−k(elimination slope) ClintμL/min/10^6 cells=ln2/t1/2×μL incubation/hepatocytes (10^6 cells) Clint,hepmL/min/kg=Clint/1000×A×10^6 cells/g liver×B g liver/kg body weight […]
# (§2) For the metabolic stability assay, an LC-MS/MS system was employed, consisting of an Agilent 1260 series HPLC system (Agilent Technologies Inc., Santa Clara, CA, USA) coupled to an API 4000 mass spectrometer (AB SCIEX, Concord, Vaughan, ON, Canada) equipped with a turbo electrospray interface. […] ETN101 and IS were detected using multiple reaction monitoring (MRM) mode under positive electrospray ionization (ESI). […]
# [2] = Metabolic stability in rat hepatocytes; conditions: cryopreserved hepatocytes
# Experimental: as §1, §2
# [3] = test system: NAT2 in human liver cytosol; experiment: Human liver cytosol incubation with NAT2 inhibitor 1-aminobenzotriazole; conditions: 30 min at 37 °C, M1 1 μM
# Experimental: For the chemical inhibition assay, human liver cytosol was prepared in 0.05 M potassium phosphate buffer at a concentration of 1 mg/mL prior to use. A 1 μL of M1 (final concentration: 1 μM) solution was spiked in 223 μL of human liver cytosol preparations. One microliter each of caffeic acid and 1-aminobenzotriazole were added and incubated as NAT1 and NAT2 inhibitors, respectively. The final concentrations of the NAT inhibitors were 0, 100, and 1000 μM in each incubate. After 5 min of pre-warming of the incubates at 37 °C, the metabolic reaction was initiated by adding 25 μL of acetyl-CoA regenerating system to the incubates. The samples were incubated in triplicate for 0 min or 30 min at 37 °C. The reaction was stopped by adding 250 μL of ice-cold acetonitrile containing the IS (camptothecin, 500 ng/mL) and vortex-mixing. Following centrifugation at 13,000 rpm for 5 min at 4 °C, a 2 μL aliquot of the supernatant was injected into the LC-MS/MS system. The percentage of remaining M1 and the formation of M2 were evaluated to determine the involvement of the NAT isozyme in N-acetylation of M1.
# For enzyme characterization, an Agilent 6460 triple quadrupole mass spectrometer coupled with a 1260 HPLC system (Agilent Technologies, Santa Clara, CA, USA) and a Kinetex Halo® C18 column (2.7 μm, 2.1 × 50 mm, Advanced Material Technology, Wilmington, DE, USA) were used for chromatographic separation. The mobile phases comprised 0.1% (v/v) formic acid in water (mobile phase A) and 0.1% formic acid (v/v) in acetonitrile (mobile phase B). The mobile phase flowed at a rate of 0.3 mL/min, and the gradient elution program proceeded as follows: starting with 10% B for 0.5 min, a linear increase to 90% B for 0.2 min, maintaining 90% B for 1.5 min, and then returning to initial conditions for 0.2 min. Subsequently, the column was reconditioned using 10% B for 2.6 min. The column and auto-sampler were maintained at 40 °C and 4 °C, respectively. ETN101, M1, and M2 were detected via MRM using ESI in the positive mode. […]
Structure (SMILES),half-life at 2 µM ([1]; 45 min incubation at 37 °C),hepatocyte CLint at 2 µM ([1]; 45 min incubation at 37 °C),CLint scaled at 2 µM ([1]; scaled from Clint),half-life at 2 µM ([2]; 45 min incubation at 37 °C),hepatocyte CLint at 2 µM ([2]; 45 min incubation at 37 °C),CLint scaled at 2 µM ([2]; scaled from Clint),Percentage remaining of M1 ([3]; 1-aminobenzotriazole 0 μM),Percentage remaining of M1 ([3]; 1-aminobenzotriazole 100 μM),Percentage remaining of M1 ([3]; 1-aminobenzotriazole 1000 μM)
"NCC(N)C(=O)Nc1ccc(-c2nc3ccccc3s2)cc1 (stereo not drawn) [ETN101, 2,3-diamino-N-(4-(benzo[d]thiazol-2-yl)phenyl)propanamide]",1.25 h,18.5 µL/min/1e6 cells,66.1 mL/min/kg,1.15 h,20.1 µL/min/1e6 cells,94.1 mL/min/kg,–,–,–
"Nc1ccc(-c2nc3ccccc3s2)cc1 [M1, 2-(4-aminophenyl)benzothiazole]",–,–,–,–,–,–,86.7%,89.4%,90.9%
